Measurements reported in patent US20260060936A1, “INDOLIUM-BASED STABILIZERS OF HYDROPHOBIC DRUGS” (TECHNION RESEARCH & DEVELOPMENT FOUNDATION LTD., priority 2022, published 2026).

Tests used:
[1] = test system: 3T3 cells; experiment: Image-based cell counting toxicity assay; parameters: species or system mouse; conditions: free drug; attributed to >5% DMSO in the medium
Procedure: Polymers toxicity assay in 2D. 3T3 Cells were seeded in 96 well plates at a 30% confluency (6000 cells per well) and allowed to adhere for 24 h. Polymers were purified with Sephadex G25 columns, nanoparticles were suspended in DDW and added to the wells. Untreated cells (control) were used to establish 100% viability. The effect on cell viability was measured with MTT (5 mg/ml, Glentham Life Sciences, UK).
In-vitro toxicity and anti-tumor efficacy experiments. First, we tested the three leading copolymers for in-vitro cytotoxicity, using mouse embryonic fibroblast cells (3T3 cells) as a non-cancerous model (FIG. 12). The copolymers were purified with Sephadex G25 columns and were serially diluted in a 96-well plate seeded with the cells. We used two separate viability assays: MTT and an image-based cell counting method using automated microscopy. In the MTT assay we found no reduction in cell viability over control, even in the highest concentration of polymers (FIG. 12, upper and middle panels). […] The cells morphology was not changed following incubation with the polymers, though at higher concentrations intracellular dark vesicles could be observed, indicating cellular uptake into the endo-lysosomal pathway (FIG. 13).

[2] = DLS size and PDI of drug nanoparticles with dye stabilizers (Study 1); format: physicochemical; conditions: for nanoparticle formation with IR783: stabilizer IR783; for nanoparticle formation with R595: stabilizer R595
Procedure: For comparison with other stabilizers, the […] was replaced with the following excipients: Pluronic F-127, sodium lauryl sulfate (SDS), carboxymethyl cellulose (CMC), α-cyclodextrin (αCD), β-cyclodextrin (βCD), βCD-SO3, and human serum albumin (HSA). All compounds were dissolved as 10 mg/ml in DDW. Further comparison of […] with IR783/IR820 based nanoparticles was also performed in DDW. The solutions were centrifuged (30,000 g, 15 min, room temperature) and the pellet was resuspended in 1 ml of DDW. In the automation process, using the Andrew Alliance pipetting robot (Waters Corp, MA), the nanoparticles were purified using a PD-10 desalting column (Cytiva, Marlborough, MA) and 1.7 ml of eluent was collected after 2.5 ml void volume (defined by the vendor). Characterization of nanoparticles. Dynamic light scattering (DLS) measurements were conducted using a Zetasizer Nano ZS (Malvern Panalytical, Malvern, UK).

[3] = Long-term stability and shelf-life of nanoparticles (size and PDI over time); format: physicochemical; conditions: trametinib nanoparticles with different dyes; within the first 24 hours
Procedure: Manual preparation of nanoparticles. 100 μL of drugs dissolved in DMSO (10 mg/ml) were added under slight vortexing to 0.5 ml of 0.1 M sodium bicarbonate buffer containing 1.6 mg/ml R595 (100 μl from 10 mg/ml stock solution in 0.5 ml). For comparison with other stabilizers, the R595 was replaced with the following excipients: Pluronic F-127, sodium lauryl sulfate (SDS), carboxymethyl cellulose (CMC), α-cyclodextrin (αCD), β-cyclodextrin (βCD), βCD-SO3, and human serum albumin (HSA). All compounds were dissolved as 10 mg/ml in DDW. Further comparison of R595 with IR783/IR820 based nanoparticles was also performed in DDW. The solutions were centrifuged (30,000 g, 15 min, room temperature) and the pellet was resuspended in 1 ml of DDW. In the automation process, using the Andrew Alliance pipetting robot (Waters Corp, MA), the nanoparticles were purified using a PD-10 desalting column (Cytiva, Marlborough, MA) and 1.7 ml of eluent was collected after 2.5 ml void volume (defined by the vendor).
Characterization of nanoparticles. Dynamic light scattering (DLS) measurements were conducted using a Zetasizer Nano ZS (Malvern Panalytical, Malvern, UK).

[4] = DLS size, PDI and stability of copolymer-stabilized nanoparticles (Study 2); format: physicochemical; conditions: nilotinib nanoparticles
Procedure: Preparation of nanoparticles. Drugs dissolved in DMSO (Carlo Erba, 10 mg/ml) were added under slight vortex to aqueous dye solution, buffered with 0.1M sodium bicarbonate. IR783 (Sigma-Aldrich) and the polymers' concentrations were 2 mg/ml. […] If the particles were cleaned in centrifuge, the solution was sonicated using Sonics' Vibra-cell ultrasonic processor (20% amplitude, 3 seconds pulses) until homogenous.
Characterization of nanoparticles. DLS measurements were conducted using a Zetasizer Nano ZS (Malvern Panalytical, Malvern, UK).

[5] = test system: KPL cells; conditions: mouse, in vivo, ip
Procedure: KRAS driven lung tumor studies. Six-weeks-old female C57BL/6J mice strain were purchased from Envigo RMS. Inducing tumors in the lung was done by injecting 10^5 KPL cells suspended in 200 μl of PBS intravenously (IV) via the tail vein. […] For efficacy studies, treatments were administered biweekly for ten weeks. For safety studies, immunohistochemistry (H&E) was done on treated mice. Animals were euthanized using CO2 inhalation. Mice were housed in air-filtered laminar flow cabinets with a 12-hr light/dark cycle and food and water ad libitum.

[6] = test system: HCT116; experiment: Cell viability assay in 2D (anti-cancer drug-screen); format: cell-based, human
Procedure: (§1) Cell viability assay in 2D. Cells were seeded in 96 well plates at a 30% confluency and allowed to adhere for 24 h. All drugs were dissolved in DMSO. Nanoparticles were suspended in DDW and were added to the wells after dilution with growth medium. Untreated cells (control) were used to establish 100% viability. The effect on cell viability was measured both with Promega® CellTiter-Glo® (CTG) and with images taken by the Lionheart followed by a cell count feature provided by the vendor (BioTeK).

[7] = test system: KPL; experiment: as above; format: cell-based, mice
Procedure: as §1

CNC(=O)c1ccc(N2C(=S)N(c3ccc(C#N)c(C(F)(F)F)c3)C(=O)C2(C)C)cc1F [Free enzalutamide, enzalutamide]
toxicity in 3T3 cells [1]: slight toxicity in high concentrations

COc1cc2nccc(Oc3ccc(NC(=O)NC4CC4)c(Cl)c3)c2cc1C(N)=O [lenvatinib]
nanoparticle formation with IR783 [2]: failed to form nanoparticles | nanoparticle formation with R595 [2]: formed stable nanoparticles

CC1(C)C(=CC=C2CCCC(C=CC3=[N+](CCCCS(=O)(=O)[O-])c4ccc5ccccc5c4C3(C)C)=C2Cl)N(CCCCS(=O)(=O)[O-])c2ccc3ccccc3c21.[Na+] [IR820]
stabilizer comparison (size and PDI) [3]: better stabilizer than IR783

CC1(C)C(=CC=C2CCCC(C=CC3=[N+](CCCCS(=O)(=O)[O-])c4ccccc4C3(C)C)=C2Cl)N(CCCCS(=O)(=O)[O-])c2ccccc21.[Na+] [IR783]
time to aggregation [4]: ≤ 24 h

CC(=O)Nc1cccc(-n2c(=O)n(C3CC3)c(=O)c3c(Nc4ccc(I)cc4F)n(C)c(=O)c(C)c32)c1 [trametinib]
toxicity as observed with weight changes [5]: no dose limiting toxicities

CC(C)C[C@H](NC(=O)[C@H](CCc1ccccc1)NC(=O)CN1CCOCC1)C(=O)N[C@@H](Cc1ccccc1)C(=O)N[C@@H](CC(C)C)C(=O)[C@@]1(C)CO1 [carfilzomib]
potency in cell viability drug-screen with 7 drugs [6]: highest potency | potency in cell viability drug-screen with 7 drugs [7]: highest potency

CCc1c2c(nc3ccc(OC(=O)N4CCC(N5CCCCC5)CC4)cc13)-c1cc3c(c(=O)n1C2)COC(=O)[C@]3(O)CC [irinotecan]
nanoparticle formation with IR783 [2]: failed to form nanoparticles | nanoparticle formation with R595 [2]: formed stable nanoparticles
